Measurements reported in BindingDB's records for doi:10.7270/Q2B27SQ0 (Nmmlsc, 2008).
pEC50: −log10 of the molar value.

Molecular target: Apoptosis regulator Bcl-2 (Homo sapiens, UniProt P10415)
Test: PubChem AID 950
Conditions: not given

Apoptosis regulator Bcl-2, sequence (P10415 whole entry): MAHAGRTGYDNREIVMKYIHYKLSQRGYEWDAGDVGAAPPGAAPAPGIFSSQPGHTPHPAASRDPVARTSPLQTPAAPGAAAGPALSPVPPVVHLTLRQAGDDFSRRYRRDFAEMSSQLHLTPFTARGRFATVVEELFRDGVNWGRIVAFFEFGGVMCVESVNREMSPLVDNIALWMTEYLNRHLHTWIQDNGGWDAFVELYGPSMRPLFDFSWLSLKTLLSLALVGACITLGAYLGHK

pEC50 | Structure (SMILES)
6.01 | CCC(=O)N(CC)C1C(=O)C(=O)c2ccccc2C1=O (stereo unspecified) [N-ethyl-N-(1-hydroxy-3,4-dioxo-2-naphthalenyl)propanamide]
5.39 | O=C1c2ccccc2-c2onc3ccc(NCCCn4ccnc4)c1c23 [SMR000044769]
5.28 | Nc1c(C(=O)NCC2CCCO2)sc2nc3c(c(-c4ccco4)c12)CC/C3=C\c1ccco1 (stereo unspecified) [SMR000259502]
5.33 | Nc1c(C(=O)NC2CC2)sc2nc3c(c(-c4ccco4)c12)CC/C3=C/c1ccco1 [SMR000259554]
5.22 | CC(=NNC(=O)c1cc(O)c(O)c(O)c1)c1ccc([N+](=O)[O-])cc1 [SMR000312589]
4.65 | CCN1/C(=C/C(C)=C/c2sc3ccccc3[n+]2CC)Sc2ccccc21 [SMR000354813]

Same assay, conditions: inactive by the depositor's call

Structure (SMILES) | pEC50
CSc1nnc2c3cc(C)ccc3n(Cc3ccccc3)c2n1 [SMR000046397] | 4.53
c1ccc(-c2nc(N3CCCCCC3)c3ccccc3n2)nc1 [SMR000046752] | 4.70
Nc1ccc(C2=Nc3cccc4cccc(c34)N2)cc1 [SMR000175908] | 4.74
O=C1c2ccccc2-c2onc3ccc(N4CCCC4)c1c23 [SMR000279741] | 4.55

The remaining lines, values ahead:

pEC50 | Structure (SMILES)
4.82 | CCOC(=O)c1nc(Nc2ccc(C(=O)OC)cc2)c2ccccc2n1 [ethyl 4-(4-methoxycarbonylanilino)quinazoline-2-carboxylate]
4.86 | C#CCn1cc(C=C2C(=O)c3ccccc3C2=O)c2ccccc21 [SMR000196125]
4.87 | CCOC(=O)C1=C(Cc2ccc(OC)cc2)C(=O)c2ccccc2C1=O [SMR000136995]
4.96 | O=C(Nc1cccc(C(F)(F)F)c1)c1ccc2nc(-c3ccco3)c(-c3ccco3)nc2c1 [SMR000142217]
5.03 | O=C(Nc1ccc2nc(-c3ccco3)c(-c3ccco3)nc2c1)NC1CC1 [SMR000118524]
5.05 | CNc1ccc(Br)cc(C(=O)/C=C/c2cc(OC)ccc2OC)c1=O [SMR000115626]
5.07 | Cc1ccc(C=NNC(=O)CSc2nnc(-c3ccc(Cl)cc3)n2-c2ccccc2)o1 [SMR000218122]
5.31 | CCN(CC)C(=O)COC(=O)c1cc(-c2ccco2)nc2ccccc12 [SMR000377201]
5.33 | CC(C)(C)NC(=O)COc1ccc(CNc2ccc3[nH]c(O)nc3c2)cc1 [N-tert-butyl-2-[4-[[(2-oxidanylidene-1,3-dihydrobenzimidazol-5-yl)amino]methyl]phenoxy]ethanamide]
5.61 | CN(N=Cc1ccncc1)C1=NS(=O)(=O)c2ccccc21 [isonicotinaldehyde (1,1-dioxido-1,2-benzisothiazol-3-yl)(methyl)hydrazone]
5.74 | COC(=O)c1c(C(=O)OC)c2cccc3cc(-c4ccccc4)c4ccc1c4n32 [SMR000161417]
